Test results: ChEMBL document CHEMBL3865846, “Synthesis and biological evaluation of ricinoleic acid-based lipoamino acid derivatives” (Bioorg Med Chem Lett, 2016)
Values after ≈ are worked out from the molar mass of the structure shown.

Legend:
Type in all cases: functional
Candida albicans [1] = assay: Antimicrobial activity against Candida albicans MTCC227 measured after 24 hrs by well-diffusion method; details: MTCC227, 24 h
Pseudomonas aeruginosa = assay: Antimicrobial activity against Pseudomonas aeruginosa MTCCM2453 measured after 24 hrs by well-diffusion method; details: MTCCM2453, 24 h
Staphylococcus aureus [2] = assay: Antimicrobial activity against Staphylococcus aureus MTCC96 measured after 24 hrs by well-diffusion method; details: MTCC96, 24 h
Candida albicans [3] = assay: Antimicrobial activity against Candida albicans MTCC3018 measured after 24 hrs by well-diffusion method; details: MTCC3018, 24 h
Escherichia coli = assay: Antimicrobial activity against Escherichia coli MTCC739 measured after 24 hrs by well-diffusion method; details: MTCC739, 24 h
Candida albicans [4] = assay: Antimicrobial activity against Candida albicans MTCC3017 measured after 24 hrs by well-diffusion method; details: MTCC3017, 24 h
Candida albicans [5] = assay: Antimicrobial activity against Candida albicans MTCC1637 measured after 24 hrs by well-diffusion method; details: MTCC1637, 24 h
Raoultella planticola = assay: Antimicrobial activity against Klebsiella planticola MTCC530 measured after 24 hrs by well-diffusion method; details: MTCC530, 24 h
Bacillus subtilis [6] = assay: Antimicrobial activity against Bacillus subtilis MTCC121 measured after 24 hrs by well-diffusion method; details: MTCC121, 24 h
Candida albicans [7] = assay: Antimicrobial activity against Candida albicans MTCC7315 measured after 24 hrs by well-diffusion method; details: MTCC7315, 24 h
Staphylococcus aureus [8] = assay: Antimicrobial activity against Staphylococcus aureus MLS16 MTCC2940 measured after 24 hrs by well-diffusion method; details: MLS16 MTCC2940, 24 h
Candida albicans [9] = assay: Antimicrobial activity against Candida albicans MTCC4748 measured after 24 hrs by well-diffusion method; details: MTCC4748, 24 h
Candida albicans [10] = assay: Antimicrobial activity against Candida albicans MTCC183 measured after 24 hrs by well-diffusion method; details: MTCC183, 24 h
Micrococcus luteus [11] = assay: Antimicrobial activity against Micrococcus luteus MTCC2470 measured after 24 hrs by well-diffusion method; details: MTCC2470, 24 h
Candida albicans [12] = assay: Antimicrobial activity against Candida albicans MTCC854 measured after 24 hrs by well-diffusion method; details: MTCC854, 24 h
Candida albicans [13] = assay: Antimicrobial activity against Candida albicans MTCC3958 measured after 24 hrs by well-diffusion method; details: MTCC3958, 24 h
Micrococcus luteus [14] = assay: Bactericidal activity against Micrococcus luteus MTCC2470 measured after 24 hrs; details: MTCC2470, 24 h
Staphylococcus aureus [15] = assay: Bactericidal activity against Staphylococcus aureus MTCC96 measured after 24 hrs; details: MTCC96, 24 h
Bacillus subtilis [16] = assay: Bactericidal activity against Bacillus subtilis MTCC121 measured after 24 hrs; details: MTCC121, 24 h
Staphylococcus aureus [17] = assay: Bactericidal activity against Staphylococcus aureus MLS16 MTCC2940 measured after 24 hrs; details: MLS16 MTCC2940, 24 h
Candida parapsilosis = assay: Antimicrobial activity against Candida parapsilosis MTCC1744 measured after 24 hrs by well-diffusion method; details: Lodderomyces parapsilosis, MTCC1744, 24 h

MIC (Candida albicans [1])	MIC (Pseudomonas aeruginosa)	MIC (Staphylococcus aureus [2])	MIC (Candida albicans [3])	MIC (Escherichia coli)	MIC (Candida albicans [4])	MIC (Candida albicans [5])	MIC (Bacillus subtilis [6])	MIC (Candida albicans [7])	MIC (Staphylococcus aureus [8])	MIC (Candida albicans [9])	MIC (Candida albicans [10])	MIC (Micrococcus luteus [11])	MIC (Candida albicans [12])	MIC (Candida albicans [13])	SMILES	MIC (Raoultella planticola)	other results
> 125 µg/mL	> 125 µg/mL	> 125 µg/mL	> 125 µg/mL	> 125 µg/mL	> 125 µg/mL	> 125 µg/mL	> 125 µg/mL	> 125 µg/mL	> 125 µg/mL	> 125 µg/mL	> 125 µg/mL	> 125 µg/mL	> 125 µg/mL	> 125 µg/mL	CCCCCCC(C/C=C\CCCCCCCC(=O)OC)NC(=O)[C@@H](N)C(C)C (stereo not given in full)	> 125 µg/mL	
> 125 µg/mL	> 125 µg/mL	> 125 µg/mL	> 125 µg/mL	> 125 µg/mL	> 125 µg/mL	> 125 µg/mL	> 125 µg/mL	> 125 µg/mL	> 125 µg/mL	> 125 µg/mL	> 125 µg/mL	> 125 µg/mL	> 125 µg/mL	> 125 µg/mL	CCCCCCC(C/C=C\CCCCCCCC(=O)OC)NC(=O)[C@@H](N)[C@@H](C)CC (stereo not given in full)	> 125 µg/mL	
15.6 µg/mL (≈ 40.8 µM)	> 125 µg/mL	7.8 µg/mL (≈ 20.4 µM)	15.6 µg/mL (≈ 40.8 µM)	> 125 µg/mL	15.6 µg/mL (≈ 40.8 µM)	15.6 µg/mL (≈ 40.8 µM)	15.6 µg/mL (≈ 40.8 µM)	15.6 µg/mL (≈ 40.8 µM)	15.6 µg/mL (≈ 40.8 µM)	15.6 µg/mL (≈ 40.8 µM)	15.6 µg/mL (≈ 40.8 µM)	31.2 µg/mL (≈ 81.5 µM)	15.6 µg/mL (≈ 40.8 µM)	7.8 µg/mL (≈ 20.4 µM)	CCCCCCC(C/C=C\CCCCCCCC(=O)OC)NC(=O)[C@H](C)N (stereo not given in full)	> 125 µg/mL	MBC (Micrococcus luteus [14]): 15.6 µg/mL (≈ 40.8 µM); MBC (Staphylococcus aureus [15]): 15.6 µg/mL (≈ 40.8 µM); MBC (Bacillus subtilis [16]): 15.6 µg/mL (≈ 40.8 µM); MBC (Staphylococcus aureus [17]): 15.6 µg/mL (≈ 40.8 µM); MIC (Candida parapsilosis): 7.8 µg/mL (≈ 20.4 µM)
> 125 µg/mL	> 125 µg/mL	> 125 µg/mL	> 125 µg/mL	> 125 µg/mL	> 125 µg/mL	> 125 µg/mL	> 125 µg/mL	> 125 µg/mL	> 125 µg/mL	> 125 µg/mL	> 125 µg/mL	> 125 µg/mL	> 125 µg/mL	> 125 µg/mL	CCCCCCC(C/C=C\CCCCCCCC(=O)OC)NC(=O)[C@@H](N)Cc1ccccc1 (stereo not given in full)	> 125 µg/mL	
> 125 µg/mL	> 125 µg/mL	> 125 µg/mL	> 125 µg/mL	> 125 µg/mL	> 125 µg/mL	> 125 µg/mL	> 125 µg/mL	> 125 µg/mL	> 125 µg/mL	> 125 µg/mL	> 125 µg/mL	> 125 µg/mL	> 125 µg/mL	> 125 µg/mL	CCCCCCC(C/C=C\CCCCCCCC(=O)OC)NC(=O)[C@@H](N)CC(C)C (stereo not given in full)	> 125 µg/mL	
